Test results from paper PMC5531494, “Target specificity, in vivo pharmacokinetics, and efficacy of the putative STAT3 inhibitor LY5 in osteosarcoma, Ewing's sarcoma, and rhabdomyosarcoma” (PLoS ONE, 2017).

How the values were obtained:
RD cells = assay: Alamar Blue cell viability assay; format: cell-based; settings: Homo sapiens, 96 hours
Protocol: (§1) Sarcoma cell lines were seeded in 24-well plates in 1X RPMI medium containing 10% fetal bovine serum. Cells were then incubated with DMSO (control) or concentrations of LY5 ranging from 10 nM to 10 μM for 96 hrs. At the end of the incubation period, Alamar Blue (Invitrogen, Carlsbad, CA) was added to cells at one-tenth the volume of the cell culture medium and incubated for 3 hrs at 37° C in the dark. Fluorescence was then measured at an excitation/emissions wavelength of 570/590 nm and emission wavelength of 590 nm.
(§2) Fig 2 Biologic activity of LY5 in sarcoma cell lines. Dose response curves for LY5: RMS cell lines (RH30, RD, JR-1), ES cell lines (ES-3, ES-6, ES-7, ES-8), and an OS cell line (OS-17) were treated with LY5 (concentrations ranging from 10 nM to 10 μM) for 96 hours. Cell viability was determined using Alamar Blue staining. IC50 values are indicated for each cell line. Analyses were performed in triplicate and data are plotted as means ± standard deviation.

JR-1 cells = assay: Alamar Blue cell viability assay; format: cell-based; settings: Homo sapiens; JR-1, 96 hours
Protocol: as §1, §2

ES-7 cells = assay: Alamar Blue cell viability assay; format: cell-based; settings: Homo sapiens, ES7; ES-7, 96 hours
Protocol: as §1, §2

OS-17 cells = assay: Alamar Blue cell viability assay; format: cell-based; settings: Homo sapiens; OS-17, 96 hours
Protocol: as §1, §2

ES-8 cells = assay: Alamar Blue cell viability assay; format: cell-based; settings: Homo sapiens, ES8; ES-8, 96 hours
Protocol: as §1, §2

RH30 cells = assay: Alamar Blue cell viability assay; format: cell-based; settings: Homo sapiens; RH30, 96 hours
Protocol: as §1, §2

ES-3 cells = assay: Alamar Blue cell viability assay; format: cell-based; settings: Homo sapiens; ES-3, 96 hours
Protocol: as §1, §2

ES-6 cells = assay: Alamar Blue cell viability assay; format: cell-based; settings: Homo sapiens; ES-6, 96 hours
Protocol: as §1, §2

[1] = system: RH30, ES-3, ES-7, EW-8 cells; assay: Combined STAT3 knockdown-LY5 cell viability assay (Alamar Blue); format: cell-based, human; settings: NC siRNA or STAT3 siRNA 48 hrs, then 0.5 μM or 1 μM LY5 48 hrs
Protocol: Cell lines were transfected with 10 nM of AllStars negative control siRNA or human STAT3-targeting siRNA #7 (5’-[…]-3’) (Qiagen, Germantown, MD) using Lipofectamine RNAiMAX (Life Technologies, Carlsbad, CA) according to the manufacturer’s instructions. After 72 hrs of transfection, cells were harvested and lysed for immunoblotting. For the combined STAT3 knockdown–LY5 cell viability assay, negative control siRNA or STAT3 siRNA #7 was transfected into cell lines. After 48 hrs, cells were treated with 0.5 μM or 1 μM of LY5 for another 48 hrs. Cell viability was then analyzed using Alamar Blue as described above.
Fig 6 Effects of LY5 are not mediated via STAT3 inhibition. (A) Antitumor activity of LY5 against OS-1 PDX model of OS. […] After 72 hours of transfection, cells were harvested and analyzed for total (T) STAT3 and GAPDH protein expression by immunoblotting. […] Cell viability was then determined using Alamar Blue staining. […]
(A) ES cell line ES-3 was transfected with either negative control siRNA (NC siRNA) or STAT3-targeting siRNA #7. After 72 hrs of transfection, cells were harvested and analyzed for total (T) STAT3 and GAPDH protein expression by immunoblotting. […] Cell viability was evaluated using Alamar Blue staining. […]

Protein binding in mice = format: in vitro ADME
STAT3 = STAT3 (Homo sapiens, UniProt P40763); assay: STAT3 phosphorylation in OS-1 PDX tumors; format: in vivo, mice; parameters: from tissue; host or cells: OS-17-luc lung metastases and OS-1 subcutaneous PDX tumours in C.B-17 scid mice; settings: 40 mg/kg twice daily, tumors harvested 2 hrs after final drug administration
Chain of STAT3 (P40763 whole entry): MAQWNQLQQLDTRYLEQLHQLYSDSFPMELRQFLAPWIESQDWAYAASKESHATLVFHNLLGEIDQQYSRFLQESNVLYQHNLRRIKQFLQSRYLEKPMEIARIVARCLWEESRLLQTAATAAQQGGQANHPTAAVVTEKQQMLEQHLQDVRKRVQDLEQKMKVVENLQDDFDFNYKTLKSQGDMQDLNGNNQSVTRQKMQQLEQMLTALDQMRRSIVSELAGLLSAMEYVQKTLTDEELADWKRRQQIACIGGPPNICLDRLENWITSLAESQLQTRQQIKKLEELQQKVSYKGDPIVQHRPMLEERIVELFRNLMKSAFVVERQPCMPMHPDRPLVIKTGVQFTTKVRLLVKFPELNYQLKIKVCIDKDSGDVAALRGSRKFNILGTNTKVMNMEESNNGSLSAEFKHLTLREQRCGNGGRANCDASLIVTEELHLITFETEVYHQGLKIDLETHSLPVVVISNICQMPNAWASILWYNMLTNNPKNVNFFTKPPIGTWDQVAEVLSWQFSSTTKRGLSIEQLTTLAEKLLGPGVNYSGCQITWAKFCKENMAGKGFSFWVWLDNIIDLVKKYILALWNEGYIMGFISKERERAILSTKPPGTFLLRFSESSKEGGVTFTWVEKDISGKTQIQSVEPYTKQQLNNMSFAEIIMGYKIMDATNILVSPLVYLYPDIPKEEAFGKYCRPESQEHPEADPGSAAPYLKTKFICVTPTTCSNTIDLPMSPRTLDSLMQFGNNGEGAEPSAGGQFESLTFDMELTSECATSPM
Protocol: To further examine the efficacy of LY5, we administered LY5 using subcutaneous PDX models of RMS (RH10 and RH36) and OS (OS-17 and OS-1). RH10, RH36 and OS-1 were derived from tissue explants, therefore no corresponding cell lines exist. Tumors were harvested 2 hrs after final drug administration. […] In addition, STAT3 phosphorylation was not observed in control or treated tumor derived from OS-17, and inhibition of STAT3 phosphorylation was not observed in OS-1 PDX models treated with 40 mg/kg twice daily.

[2] = system: human rhabdomyosarcoma cell lines RD, JR-1, and RH30; assay: Alamar Blue cell viability assay, rhabdomyosarcoma panel; format: cell-based; settings: range over RD, JR-1, RH30
Protocol: as §1, §2

NS(=O)(=O)c1cccc2c1C(=O)C=C(Nc1cccnc1)C2=O [LY5, 5,8-dioxo-6-(pyridin-3-ylamino)-5,8-dihydronaphthalene-1-sulfonamide]
IC50 (RD cells): 204 nM | IC50 (JR-1 cells): 271 nM | IC50 (ES-7 cells): 2150 nM | IC50 (OS-17 cells): 1430 nM | IC50 (ES-8 cells): 2000 nM | IC50 (RH30 cells): 428 nM | IC50 (ES-3 cells): 3420 nM | IC50 (ES-6 cells): 5060 nM | response to LY5 (cell viability) with or without STAT3 depletion [1]: comparable | drug protein-bound (Protein binding in mice): Approximately 90% | inhibition of STAT3 phosphorylation in tumors (STAT3): not observed | IC50 [2]: 200 to 400 nM
